Earlier results as cited in patent US20240398831A1, “COMPOSITIONS COMPRISING SMALL MOLECULE REGULATORS OF TUMOR IMMUNITY AND METHODS OF USING SAME” (Duke University, priority 2021, published 2024).

Tested on: melanoma
Conditions: human, in vivo; cited from earlier work

## CC/C(=C(\c1ccccc1)c1ccc(OCCN(C)C)cc1)c1ccccc1 [tamoxifen]
  results of studies in melanoma patients: equivocal
